Experiments:
[1] = tested on: Wnt/β-catenin signaling (β-catenin activity) in SW480 cell line; assay: Cell-based Wnt agonist screening, TCF luciferase reporter, SW480 (TCF-FL); set-up: species or system human; details: Homo sapiens, % of LiCl (20 mM), 24 h, read-out: Max. Activity (%); for Emax at 30 µM: Con. 30 μM; for Emax at 1 µM: Con. 1 μM; for Emax at 120 µM: Con. 120 μM
In short: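 HEK293 and SW480 lines stably carried a 5X TCF firefly luciferase reporter under G418 selection. Cells (8,000–15,000/well, RPMI 1640 with 5% FBS) were grown 24 h, then treated with compound for 24 h. Luciferase activity was expressed as percent of the 20 mM LiCl positive control.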

[2] = tested on: ST-2, a murine bone marrow stromal T cell; assay: Differentiation of ST2 cell line into osteoblasts, alkaline phosphatase activity; assay type: cell-based; details: Mus musculus, 96 h; ST-2 cells, 11 μM compound, 4 days; control treated only with ascorbic acid and β-glycerolphosphate = 100; read-out: ALP Activity (% Control)
Method: The derivatives synthesized according to the present invention were assayed for their ability to differentiate stem cells into osteoblasts. In this regard, ST-2, a murine bone marrow stromal T cell, was used to measure the activity of bone-specific alkaline phosphatase, a marker of early-stage osteoblast differentiation. In detail, the cell line was cultured in an MEM supplemented with penicillin-streptomycin (100 Units/mL) and heat-inactivated 5% fetal bovine serum under standard culture conditions (5% CO2, 37° C., 100% relative humidity). […] The suspension was diluted with the same medium to adjust the cell count to 5,000˜10,000 cells per well, and was moved in a 96-well microtiter, subsequently. After being incubated for 24 hrs, the cells were treated in a medium containing 50 μg/ml of ascorbic acid and 5 mM of β-glycerolphosphate with various concentrations of the isoxazole derivatives synthesized in Preparation Examples. During incubation for one to nine days, the Alkaline phosphatase activity was analyzed using a […] Assay kit (Promega, U.S.A.) according to the protocol described in the manual provided by the manufacturer. The activities were measured in cells which had been incubated at 11 μM of each of the compounds for 4 days. Data on the activities of the isoxazole derivatives synthesized are given in Tables 44 to 47 and are expressed as percentages of ALP relative to that measured in the control, which was treated only with ascorbic acid and β-glycerolphosphate. ALP activities according to the concentrations of Derivative (1) are depicted in FIG. 5.

O=C(NCCCn1cncn1)c1cc(-c2ccc[nH]2)on1 [Derivative (159), 5-(1H-pyrrol-2-yl)-isoxazole-3-carboxylic acid (3-[1,2,4]triazol-1-yl-propyl)-amide]
Emax at 30 µM [1]: 128% | activity at 11 µM [2]: 130%

O=C(NCCN1CCNCC1)c1cc(-c2ccco2)on1 [Derivative (176), 5-furan-2-yl-isoxazole-3-carboxylic acid (2-piperazin-1-yl-ethyl)-amide]
Emax at 30 µM [1]: 93% | activity at 11 µM [2]: 179%

O=C(NCCCn1cncn1)c1cc(-c2cc3ccccc3o2)on1 [Derivative (170), 5-benzofuran-2-yl-isoxazole-3-carboxylic acid (3-[1,2,4]triazol-1-yl-propyl)-amide]
Emax at 30 µM [1]: 46% | activity at 11 µM [2]: 74%

O=C(NCCCn1ccnc1)c1cc(-c2cc3ccccc3o2)on1 [Derivative (169), 5-benzofuran-2-yl-isoxazole-3-carboxylic acid (3-imidazol-1-yl-propyl)-amide]
Emax at 1 µM [1]: 43% | activity at 11 µM [2]: 83%

O=C(NCCn1cncn1)c1cc(N2CCOCC2)on1 [Derivative (163), 5-morpholin-4-yl-isoxazole-3-carboxylic acid (2-[1,2,4]-triazol-1-yl-ethyl)-amide]
Emax at 120 µM [1]: 34% | activity at 11 µM [2]: 166%

O=C(NCCc1ccc(O)cc1)c1cc(-c2cccs2)on1 [Derivative (141), 5-thiophen-2-yl-isoxazole-3-carboxylic acid [2-(4-hydroxy-phenyl)-ethyl]-amide]
Emax at 120 µM [1]: 519% | activity at 11 µM [2]: 790%

COc1cc(OC)cc(N2CCN(CCNC(=O)c3cc(-c4ccco4)on3)CC2)c1 [Derivative (188), 5-furan-2-yl-isoxazole-3-carboxylic acid {2-[4-(3,5-dimethoxyphenyl)-piperazin-1-yl]-ethyl}-amide]
Emax at 1 µM [1]: 200% | activity at 11 µM [2]: 151%

O=C(NCCCn1ccnc1)c1cc(N2CCOCC2)on1 [Derivative (161), 5-morpholin-4-yl-isoxazole-3-carboxylic acid (3-imidazol-1-yl-propyl)-amide]
Emax at 120 µM [1]: 33% | activity at 11 µM [2]: 89%

O=C(NCCN1CCN(c2ccc(Cl)cc2)CC1)c1cc(-c2ccco2)on1 [Derivative (184), 5-furan-2-yl-isoxazole-3-carboxylic acid {2-[4-(4-chlorophenyl)-piperazin-1-yl]-ethyl}-amide]
Emax at 30 µM [1]: 70% | activity at 11 µM [2]: 126%

O=C(NCCN1CCOCC1)c1cc(-c2ccco2)on1 [Derivative (175), 5-furan-2-yl-isoxazole-3-carboxylic acid (2-morpholin-4-yl-ethyl)-amide]
Emax at 1 µM [1]: 383% | activity at 11 µM [2]: 767%

O=C(NCCCNc1ccccc1)c1cc(-c2ccco2)on1 [Derivative (201), 5-furan-2-yl-isoxazole-3-carboxylic acid (3-phenylamino-propyl)-amide]
Emax at 1 µM [1]: 545% | activity at 11 µM [2]: 859%

O=C(CCNC(=O)c1cc(-c2cccs2)on1)c1ccccc1 [Derivative (206), 5-thiophen-2-yl-isoxazole-3-carboxylic acid (3-oxo-3-phenyl-propyl)-amide]
Emax at 120 µM [1]: 584% | activity at 11 µM [2]: 772%

O=C(NCCSc1ccccc1)c1cc(-c2cccs2)on1 [Derivative (218), 5-thiophen-2-yl-isoxazole-3-carboxylic acid (2-phenylsulfanyl-ethyl)-amide]
Emax at 30 µM [1]: 55% | activity at 11 µM [2]: 128%

Cn1cccc1-c1cc(C(=O)NCCn2cncn2)no1 [Derivative (151), 5-(1-methyl-1H-pyrrol-2-yl)-isoxazole-3-carboxylic acid (2-[1,2,4]triazol-1-yl-ethyl)-amide]
Emax at 30 µM [1]: 41% | activity at 11 µM [2]: 151%

O=C(NCCOc1ccccc1)c1cc(-c2cccs2)on1 [Derivative (215), 5-thiophen-2-yl-isoxazole-3-carboxylic acid (2-phenoxy-ethyl)-amide]
Emax at 30 µM [1]: 90% | activity at 11 µM [2]: 162%

COc1ccc(NCCNC(=O)c2cc(-c3ccco3)on2)cc1 [Derivative (200), 5-furan-2-yl-isoxazole-3-carboxylic acid [2-(4-methoxy-phenylamino)-ethyl]-amide]
Emax at 30 µM [1]: 106% | activity at 11 µM [2]: 162%

O=C(NCCN1CCN(c2ncccc2C(F)(F)F)CC1)c1cc(-c2ccco2)on1 [Derivative (191), 5-furan-2-yl-isoxazole-3-carboxylic acid {2-[4-(3-trifluoromethyl-pyridin-2-yl)-piperazin-1-yl]-ethyl}-amide]
Emax at 30 µM [1]: 91% | activity at 11 µM [2]: 309%

O=C(CNC(=O)c1cc(-c2ccco2)on1)Nc1ccccn1 [Derivative (208), 5-furan-2-yl-isoxazole-3-carboxylic acid (pyridin-2-ylcarbamoylmethyl)-amide]
Emax at 30 µM [1]: 110% | activity at 11 µM [2]: 57%

Cn1cccc1-c1cc(C(=O)NCCCn2ccnc2)no1 [Derivative (149), 5-(1-methyl-1H-pyrrol-2-yl)-isoxazole-3-carboxylic acid (3-imidazol-1-yl-propyl)-amide]
Emax at 30 µM [1]: 70% | activity at 11 µM [2]: 275%

O=C(NCCN(c1ccccc1)c1ccccc1)c1cc(-c2ccco2)on1 [Derivative (196), 5-furan-2-yl-isoxazole-3-carboxylic acid (2-diphenylamino-ethyl)-amide]
Emax at 30 µM [1]: 35% | activity at 11 µM [2]: 77%

CC(=O)N1CCN(CCNC(=O)c2cc(-c3ccco3)on2)CC1 [Derivative (178), 5-furan-2-yl-isoxazole-3-carboxylic acid [2-(4-acetyl-piperazin-1-yl)-ethyl]-amide]
Emax at 120 µM [1]: 301% | activity at 11 µM [2]: 475%

CC(C)(C)c1cc(C(=O)NCCCn2cncn2)no1 [Derivative (168), 5-tert-butyl-3-isoxazole-3-carboxylic acid (3-[1,2,4]-triazol-1-yl-propyl)-amide]
Emax at 10 µM ([1]; Con. 10 μM): 40% | activity at 11 µM [2]: 97%

COc1cccnc1N1CCN(CCNC(=O)c2cc(-c3ccco3)on2)CC1 [Derivative (189), 5-furan-2-yl-isoxazole-3-carboxylic acid {2-[4-(3-methoxy-pyridin-2-yl)-piperazin-1-yl]-ethyl}-amide]
Emax at 30 µM [1]: 238% | activity at 11 µM [2]: 220%

O=C(CNC(=O)c1cc(-c2ccco2)on1)Nc1ccccc1 [Derivative (207), 5-furan-2-yl-isoxazole-3-carboxylic acid phenylcarbamoylmethyl-amide]
Emax at 120 µM [1]: 34% | activity at 11 µM [2]: 47%

O=C(NCCN1CCN(c2ncccn2)CC1)c1cc(-c2ccco2)on1 [Derivative (192), 5-furan-2-yl-isoxazole-3-carboxylic acid [2-(4-pyrimidin-2-yl-piperazin-1-yl)-ethyl]-amide]
Emax at 30 µM [1]: 137% | activity at 11 µM [2]: 398%

COc1ccc(N2CCN(CCNC(=O)c3cc(-c4ccco4)on3)CC2)cc1OC [Derivative (186), 5-furan-2-yl-isoxazole-3-carboxylic acid {2-[4-(3,4-dimethoxyphenyl)-piperazin-1-yl]-ethyl}-amide]
Emax at 30 µM [1]: 553% | activity at 11 µM [2]: 272%

O=C(NCCCn1ccnc1)c1cc(C2CCCCC2)on1 [Derivative (164), 5-cyclohexyl-3-isoxazole-3-carboxylic acid (3-imidazol-1-yl-propyl)-amide]
Emax at 120 µM [1]: 55% | activity at 11 µM [2]: 241%

O=C(NCCn1cncn1)c1cc(-c2ccoc2)on1 [Derivative (154), 5-furan-3-yl-isoxazole-3-carboxylic acid (2-[1,2,4]-triazol-1-yl-ethyl)-amide]
Emax at 120 µM [1]: 113% | activity at 11 µM [2]: 310%

Cc1cccnc1N1CCN(CCNC(=O)c2cc(-c3ccco3)on2)CC1 [Derivative (190), 5-furan-2-yl-isoxazole-3-carboxylic acid {2-[4-(3-methyl-pyridin-2-yl)-piperazin-1-yl]-ethyl}-amide]
Emax at 120 µM [1]: 372% | activity at 11 µM [2]: 269%

O=C(NCCn1cccn1)c1cc(-c2ccco2)on1 [Derivative (39), 5-furan-2-yl-isoxazole-3-carboxylic acid (2-pyrazol-1-yl-ethyl)-amide]
Emax at 30 µM [1]: 344% | activity at 11 µM [2]: 190%

O=C(NCCn1cnnn1)c1cc(-c2ccco2)on1 [Derivative (43), 5-furan-2-yl-isoxazole-3-carboxylic acid (2-tetrazol-1-yl-ethyl)-amide]
Emax at 120 µM [1]: 357% | activity at 11 µM [2]: 455%

CC(C)(C)c1cc(C(=O)NCCCn2ccnc2)no1 [Derivative (167), 5-tert-butyl-3-isoxazole-3-carboxylic acid (3-imidazol-1-yl-propyl)-amide]
Emax at 120 µM [1]: 37% | activity at 11 µM [2]: 276%

From patent US7915297B2, “Isoxazole derivatives and use thereof” (SK Holdings Co., Ltd., priority 2005, dated 2011)
